This is an account of results in patent US4073935A, “Substituted propanol-(2)-derivatives and their nicotinic acid esters, and process for their preparation, and the use thereof as hypolipemic drugs” (Klinge Pharma GmbH & Co., priority 1974, dated 1978).

Read-outs that look alike come from different tables or passages of the source.

One data set concerns serum lipids. As to the kind of experiment: Lipid-lowering action in normolipemic rats. The data set is classed as in vivo. The conditions noted are these: Rattus norvegicus, 72 h, 4 × 100 mg/kg oral over 3 days, male Wistar rats, vs controls, X ± Sx. Here is the method: Lipid-lowering action was tested on groups of 10 male Wistar rats (Ivanovas-Kisslegg), weight 200-220 g, normolipemic, or ordinary ration ("ssniff" complete feed).
The test compounds were taken up in an aqueous solution of 0.25% agar and 0.85% NaCl and administered orally. After administration of 4 × 100 mg/kg over a period of 3 days, the animals were bled by cardiac puncture after privation of […] for 4 hours.^1
^1 H. Enomoto and R. Zschocke, 3rd Int. Symp. Atheroscler, Berlin 1973, Abstr. 238.
Serum lipids were determined with a Technicon autoanalyzer. Total cholesterol (TC) was tested by the Liebermann-Burchard reaction. Quantitative analysis for triglycerides (TG) was performed by Eggstein and Kreutz's enzyme method (Klin. Wschr. 44, 262, 1966), modified for autoanalyzer.
Lipid lowering effect is expressed as percent lowering of total cholesterol and triglycerides compared to controls.

The nature of data set [1]: Oral tolerance (acute toxicity, LD50). The conditions noted are these: mouse, in vivo, mice, 8th day after treatment, Litchfield-Wilcoxon. Here is the method: After oral administration of the test compounds to mice of strain NMR-I, weight 15-20 g, the acute toxicity was determined. LD50 values were calculated following Litchfield-Wilcoxon (J. Pharmak. Exp. Therap. 96, 99, 1949) and pertain to the 8th day after treatment.

Setting [2] is: read-out: % Lowering TC (total cholesterol).
Where [3] appears, read: read-out: % Lowering TG (triglycerides).

With `O=C(O)c1ccc(OCC(O)CSc2ccc(Cl)cc2)cc1` (stereo not drawn) [Compound 75, 3-(4'-Carboxyphenoxy)-1-(4'-chlorphenylmercapto)-propanol-(2)], the inhibition in vivo at 100 mg/kg in the data set on serum lipids (setting [2]) was determined as 32.2 ± 8.7%; with serum lipids (setting [3]), 55.8 ± 14.2%.

With `O=C(O)C=Cc1ccc(OCC(O)CSc2ccc(Cl)cc2)cc1` (stereo not drawn) [Compound 77, 3-4'-(2-Carboxyvinyl)-phenoxy!-1-(4'-chlorphenylmercapto)-propanol-(2)], the figures for the inhibition in vivo at 100 mg/kg in the data set with serum lipids (setting [2]) and with serum lipids (setting [3]) were 55.5 ± 12.7% and 77.8 ± 12%, respectively.

Regarding `CC(C)(C)c1ccc(SCC(O)COc2ccc(C(=O)O)cc2)cc1` (stereo not drawn) [Compound 80, 3-(4'-Carboxyphenoxy)-1-(4'-t-butylphenylmercapto)-propanol-(2)], the inhibition in vivo at 100 mg/kg in the data set on serum lipids (setting [2]) is 48.2 ± 11.6%; with serum lipids (setting [3]), 71.6 ± 18.6%.

On to `CC(C)(C)c1ccc(SCC(O)COc2ccc(C=CC(=O)O)cc2)cc1` (stereo not drawn) [Compound 81, 3-4'-(2-Carboxyvinyl)-phenoxy!-1-(4'-t-butylphenylmercapto)-propanol-(2)], for which the inhibition in vivo at 100 mg/kg in the data set with serum lipids (setting [2]) amounted to 27.5 ± 12.7%; with serum lipids (setting [3]), 58.7 ± 14.8%.

Regarding `O=C(OCCCl)c1ccc(OCC(O)COc2ccc(Cl)cc2)cc1` (stereo not drawn) [Compound 82], the inhibition in vivo at 100 mg/kg is 53.9 ± 9.1% in the data set on serum lipids (setting [2]) and 83.8 ± 6% with serum lipids (setting [3]).

For the compound `CN(C)CCOC(=O)c1ccc(OCC(O)COc2ccc(Cl)cc2)cc1` (stereo not drawn) [Compound 83], the values for the inhibition in vivo at 100 mg/kg in the data set with serum lipids (setting [2]) and with serum lipids (setting [3]) were 46.2 ± 15.4% and 72.5 ± 11.1%, respectively.

Consider `O=C(OCc1cccnc1)c1ccc(OCC(O)COc2ccc(Cl)cc2)cc1` (stereo not drawn) [Compound 85, 3-(4'-pyridyl-(3)-methoxycarbonylphenoxy)-1-(4'-chlorophenoxy)-propanol-(2)], for which the inhibition in vivo at 100 mg/kg in the data set with serum lipids (setting [2]) stood at 52 ± 8.6%; with serum lipids (setting [3]) it was 81.4 ± 5.9%.

With `COC(=O)c1ccc(OCC(COc2ccc(Cl)cc2)OC(=O)c2cccnc2)cc1` (stereo not drawn) [Compound 95, 3-(4'-methoxycarbonylphenoxy)-1-(4'-chlorophenoxy)-propanol-(2) nicotinic acid ester], the inhibition in vivo at 100 mg/kg with serum lipids (setting [2]) amounted to 38.3 ± 15.4%; in the data set on serum lipids (setting [3]), 63.8 ± 14.8%.

For `CC(C)OC(=O)c1ccc(OCC(COc2ccc(Cl)cc2)OC(=O)c2cccnc2)cc1` (stereo not drawn) [Compound 96], the inhibition in vivo at 100 mg/kg with serum lipids (setting [2]) is 36.8 ± 14.3%; in the data set on serum lipids (setting [3]), 74 ± 4.8%.

As to `COC(=O)c1ccc(OCC(CSc2ccc(Cl)cc2)OC(=O)c2cccnc2)cc1` (stereo not drawn) [Compound 104], the results for the inhibition in vivo at 100 mg/kg in the data set with serum lipids (setting [2]) and in the data set on serum lipids (setting [3]) were 48 ± 7.9% and 81.1 ± 5.6%, respectively.

As to `O=C(NO)c1ccc(OCC(O)COc2ccc(Cl)cc2)cc1` (stereo not drawn) [Compound 105], the inhibition in vivo at 100 mg/kg worked out at 29.8 ± 14.3% with serum lipids (setting [2]) and 53.2 ± 11.2% with serum lipids (setting [3]).

Turning to `O=C(C=Cc1ccc(OCC(O)COc2ccc(Cl)cc2)cc1)NO` (stereo not drawn) [Compound 106, 3-(4'-(2-(n-hydroxycarbamoyl)-vinyl)-phenoxy)-1-(4'-chlorophenoxy)-propanol-(2)], the inhibition in vivo at 100 mg/kg in the data set with serum lipids (setting [2]) was determined as 43.9 ± 19.4%; in the data set on serum lipids (setting [3]), 64.2 ± 17.1%.

For the compound `O=C(CCc1ccc(OCC(O)COc2ccc(Cl)cc2)cc1)NO` (stereo not drawn) [Compound 107], the inhibition in vivo at 100 mg/kg stood at 49.6 ± 13.3% in the data set with serum lipids (setting [2]) and 84.8 ± 4.1% in the data set with serum lipids (setting [3]).

Consider `CC(C)(C)c1ccc(OCC(O)COc2ccc(C(=O)NO)cc2)cc1` (stereo not drawn) [Compound 108], for which the inhibition in vivo at 100 mg/kg amounted to 51.1 ± 8.3% in the data set on serum lipids (setting [2]) and 77.8 ± 3.3% in the data set with serum lipids (setting [3]).

With `CCOC(OCC)c1ccc(OCC(O)COc2ccc(Cl)cc2)cc1` (stereo not drawn) [Compound 110], the inhibition in vivo at 100 mg/kg turned out to be 32.1 ± 15.8% with serum lipids (setting [2]) and 68 ± 6.5% in the data set on serum lipids (setting [3]).

For the compound `COC(OC)c1ccc(OCC(O)COc2ccc(C(C)(C)C)cc2)cc1` (stereo not drawn) [Compound 113], the figures for the inhibition in vivo at 100 mg/kg in the data set with serum lipids (setting [2]) and in the data set on serum lipids (setting [3]) were 44.4 ± 11.2% and 84 ± 8.8%, respectively.

Take `CC(C)(C)c1ccc(OCC(O)COc2ccc(C3OCCO3)cc2)cc1` (stereo not drawn) [Compound 114]: the inhibition in vivo at 100 mg/kg came to 67.9 ± 6.6% in the data set with serum lipids (setting [2]) and 91.6 ± 4.8% with serum lipids (setting [3]).

As for `COC(OC)c1ccc(OCC(O)CSc2ccc(Cl)cc2)cc1` (stereo not drawn) [Compound 116], the inhibition in vivo at 100 mg/kg in the data set with serum lipids (setting [2]) amounted to 43.2 ± 9.8%; in the data set with serum lipids (setting [3]), 74 ± 9.8%.

For the compound `CCOC(=O)C(C)(C)Oc1ccc(Cl)cc1` [clofibrate, 2-(4'-chlorophenoxy)-2-methylpropionic acid ethyl ester, reference compound], in data set [1], the 50% lethal dose (LD50) (in general, the dose at which mortality reaches 50%) at 192 h was 1900 mg/kg. Also, the inhibition in vivo at 100 mg/kg amounted to 37.4 ± 13.6% in the data set with serum lipids (setting [2]) and 50.4 ± 20% with serum lipids (setting [3]).
